Consider 1 compound from US20140303260A1, “PHARMACEUTICAL COMPOSITIONS OF RESVERATROL” (NAD Life Pty Ltd, priority 2011, published 2014).

Series [1] has as its system blood NAD levels. The series can be described thus: NAD levels in a test group of subjects after administration of resveratrol, buccal/sublingual composition versus oral. Type of series: in vivo, human. As to the method: A 35% increased blood NAD level was sustained at 4 hrs compared to baseline. […] The comparison of the effect on NAD levels between oral administration of resveratrol and buccal/sublingual membrane administration of resveratrol is best shown in FIG. 3. This graph depicts the difference in the change in a subject's NAD levels (in ng/mL) when resveratrol is administered orally (absorption through the gastrointestinal tract) compared to when resveratrol is administrated by the pharmaceutical composition of the present invention (absorption through the buccal/sublingual membranes).

For series [2] the following is noted: cited from earlier work.

In the case of `Oc1ccc(C=Cc2cc(O)cc(O)c2)cc1` [resveratrol], in series [1] (absorption through buccal/sublingual membranes (FIG. 1), at 1 hr (60 min)), the “increase in blood NAD levels” value came out at 41%. Besides, in series [1] (absorption through buccal/sublingual membranes, at 4 hrs), the “increased blood NAD level sustained compared to baseline” value is 35%. The “change in blood NAD levels” value in series [1] (delivered via powdered slurry (gastrointestinal absorption alone)) was “No observable change”. Further, the “level of NAD after oral administration” value in series [1] (oral, absorbed through the gastrointestinal tract (FIG. 2), in only some of the people in the group) is “only a mild increase”. Also, the “solubility in aqueous solutions” value in series [2] is on record as “almost insoluble”.
